# Measured values as given in the NIST ThermoML archive (doi:10.1016/j.fluid.2011.11.013).
# Numbers after ± are expanded uncertainties.
# Conditions: Liquid, Closed cell (Static) method
SMILES,vapor or sublimation pressure (258.15 K),vapor or sublimation pressure (263.15 K),vapor or sublimation pressure (273.15 K),vapor or sublimation pressure (283.15 K)
"FC(F)C(F)F [1,1,2,2-tetrafluoroethane]",124.3 ± 1.1 kPa,153 ± 1.1 kPa,225.9 ± 1.2 kPa,323.4 ± 1.5 kPa
FC(F)(F)I [trifluoroiodomethane],133 ± 1.1 kPa,160.4 ± 1.1 kPa,228.4 ± 1.2 kPa,316.4 ± 1.4 kPa
